From US12378231B2, “Small molecules as monoacylglycerol lipase (MAGL) inhibitors, compositions and use thereof” (APOGEE PHARMACEUTICALS, INC., priority 2023, dated 2025)
Read-outs that look alike come from different tables or passages of the source.

What was measured:
[1] = biological target: human recombinant MAGL (Homo sapiens (Human), UniProt Q99685); assay: In vitro inhibition of human recombinant MAGL activity (Cayman inhibitor screening kit, 4-nitrophenylacetate hydrolysis); assay type: biochemical
Sequence of human recombinant MAGL (Q99685 whole entry): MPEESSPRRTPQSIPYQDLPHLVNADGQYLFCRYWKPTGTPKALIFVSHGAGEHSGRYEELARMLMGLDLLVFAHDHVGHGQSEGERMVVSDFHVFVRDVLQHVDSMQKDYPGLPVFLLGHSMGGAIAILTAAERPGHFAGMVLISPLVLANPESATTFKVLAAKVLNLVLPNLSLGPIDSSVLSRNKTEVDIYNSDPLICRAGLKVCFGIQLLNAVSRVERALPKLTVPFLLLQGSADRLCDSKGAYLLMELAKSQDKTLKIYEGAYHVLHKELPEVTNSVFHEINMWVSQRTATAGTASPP
Source text: The inhibitory effect of the synthetic chemicals on activity of human recombinant MAGL was studied using commercial inhibitor screening kit (Cayman Chemical). […] The absorbance of the yellow product can be analyzed using the plate reader. […]

[2] = biological target: human recombinant FAAH (Homo sapiens (Human), UniProt O00519); assay: In vitro inhibition of human recombinant FAAH activity (Cayman FAAH inhibitor screening kit, AMC arachidonoyl amide hydrolysis); assay type: biochemical
Sequence of human recombinant FAAH (O00519 whole entry): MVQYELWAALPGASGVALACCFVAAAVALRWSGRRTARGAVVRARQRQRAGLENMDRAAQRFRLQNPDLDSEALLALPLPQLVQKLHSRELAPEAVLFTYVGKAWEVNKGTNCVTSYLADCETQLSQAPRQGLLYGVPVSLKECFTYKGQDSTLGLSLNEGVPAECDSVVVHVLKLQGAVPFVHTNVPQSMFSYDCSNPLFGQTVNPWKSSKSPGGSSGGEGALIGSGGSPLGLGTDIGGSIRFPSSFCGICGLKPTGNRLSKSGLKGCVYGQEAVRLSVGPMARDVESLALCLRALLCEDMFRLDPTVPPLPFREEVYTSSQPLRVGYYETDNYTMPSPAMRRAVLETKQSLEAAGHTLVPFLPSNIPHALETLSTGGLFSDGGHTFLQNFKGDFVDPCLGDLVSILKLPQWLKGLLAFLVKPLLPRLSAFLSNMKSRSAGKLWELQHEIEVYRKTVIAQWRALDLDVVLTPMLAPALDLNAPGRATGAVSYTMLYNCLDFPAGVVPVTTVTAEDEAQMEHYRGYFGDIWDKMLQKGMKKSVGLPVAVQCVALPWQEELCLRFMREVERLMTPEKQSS
Source text: In brief, FAAH hydrolyzes AMC arachidonoyl amide resulting in the release of the fluorescent product, while the inhibitor will inhibit the FAAH activity and thus reduce the fluorescent signal.

[3] = human recombinant MAGL, read-out: Inhibition on MAGL activity (IC50)

Compound: Cn1ncc2cc(C(=C3CCN(C(=O)n4nnc5ccccc54)CC3)c3ccc4c(cnn4C)c3)ccc21 [Example 122, (1H-benzo[d][1,2,3]triazol-1-yl)(4-(bis(1-methyl-1H-indazol-5-yl)methylene)piperidin-1-yl)methanone]
- IC50 [1, 3]: 10 to 100 nM
- IC50 [2]: ~50000 nM

Compound: N#Cc1ncn(C(=O)N2CC3CC(=C(c4ccc5c(c4)COCO5)c4ccc5c(c4)COCO5)CC3C2)n1 (stereo not drawn) [Example 125, meso-1-(5-(bis(4H-benzo[d][1,3]dioxin-6-yl)methylene)octahydrocyclopenta[c]pyrrole-2-carbonyl)-1H-1,2,4-triazole-3-carbonitrile]
- IC50 [1, 3]: 1 to 10 nM
- IC50 [2]: 1000 to 10000 nM

Compound: O=C(N1CCN(C(c2ccc3c(c2)COCO3)c2ccc3c(c2)COCO3)CC1)n1nnc2ccc(Br)cc21 [Example 37, (4-(bis(4H-benzo[d][1,3]dioxin-6-yl)methyl)piperazin-1-yl)(6-bromo-1H-benzo[d][1,2,3]triazol-1-yl)methanone]
- IC50 [1, 3]: 1 to 10 nM
- IC50 [2]: > 50000 nM

Compound: N#Cc1ncn(C(=O)N2CCC3(CC2)CCN(C(c2ccc4c(c2)COCO4)c2ccc4c(c2)COCO4)CC3)n1 [Example 79, 1-(9-(bis(4H-benzo[d][1,3]dioxin-6-yl)methyl)-3,9-diazaspiro[5.5]undecane-3-carbonyl)-1H-1,2,4-triazole-3-carbonitrile]
- IC50 [1, 3]: 1 to 10 nM
- IC50 [2]: ~50000 nM

Compound: COc1ccc(C(c2ccc(OC)cc2)N2CCN(C(=O)n3nnc4ccc(C#N)cc43)CC2)cc1 [Example 88, 1-(4-(bis(4-methoxyphenyl)methyl)piperazine-1-carbonyl)-1H-benzo[d][1,2,3]triazole-6-carbonitrile]
- IC50 [1, 3]: 1 to 10 nM
- IC50 [2]: ~50000 nM

Compound: 1-(4-((4-methoxyphenyl)(pyridin-3-yl)methyl)piperazine-1-carbonyl)-1H-benzo[d][1,2,3]triazole-6-carbonitrile and 1-(4-((4-methoxyphenyl)(pyridin-3-yl)methyl)piperazine-1-carbonyl)-1H-benzo[d][1,2,3]triazole-5-carbonitrile [Example 103]
- IC50 [1, 3]: 1 to 10 nM
- IC50 [2]: 1000 to 10000 nM

Compound: COc1cccc(C(c2cccc(OC)c2)N2CCN(C(=O)n3nnc4cc(C#N)ccc43)CC2)c1 [Example 96, 1-(4-(bis(3-methoxyphenyl)methyl)piperazine-1-carbonyl)-1H-benzo[d][1,2,3]triazole-5-carbonitrile]
- IC50 [1, 3]: 1 to 10 nM
- IC50 [2]: 1000 to 10000 nM

Compound: O=C(OC(C(F)(F)F)C(F)(F)F)C1CCN(C(c2ccc3c(c2)COCO3)c2ccc3c(c2)COCO3)CC1 [Example 53, 1,1,1,3,3,3-hexafluoropropan-2-yl 1-(bis(4H-benzo[d][1,3]dioxin-6-yl)methyl)piperidine-4-carboxylate]
- IC50 [1, 3]: > 100 nM
- IC50 [2]: > 50000 nM

Compound: O=C(On1nnc2ccccc21)N1CCN(C(c2ccc3c(c2)COCO3)c2ccc3c(c2)COCO3)CC1 [Example 27, 1H-benzo[d][1,2,3]triazol-1-yl 4-(bis(4H-benzo[d][1,3]dioxin-6-yl)methyl)piperazine-1-carboxylate]
- IC50 [1]: 10 to 100 nM
- IC50 [2]: > 10000 nM

Compound: N#Cc1ncn(C(=O)N2CCN(C(c3ccc(-n4cccn4)cc3)c3ccc4c(c3)COCO4)CC2)n1 (stereo not shown) [Example 120, 1-(4-((4-(1H-pyrazol-1-yl)phenyl)(4H-benzo[d][1,3]dioxin-6-yl)methyl)piperazine-1-carbonyl)-1H-1,2,4-triazole-3-carbonitrile]
- IC50 [1, 3]: 1 to 10 nM
- IC50 [2]: > 50000 nM

Compound: N#Cc1ccc2nnn(C(=O)N3CCC(N(c4cccnc4)c4ccc5c(c4)OCO5)CC3)c2c1 [Example 74, 1-(4-(benzo[d][1,3]dioxol-5-yl(pyridin-3-yl)amino)piperidine-1-carbonyl)-1H-benzo[d][1,2,3]triazole-6-carbonitrile]
- IC50 [1, 3]: 1 to 10 nM
- IC50 [2]: 100 to 1000 nM

Compound: N#Cc1ncn(C(=O)N2CCC(N(c3ccc(C(F)(F)F)cc3)c3ccc4c(c3)OCO4)CC2)n1 [Example 71, 1-(4-(benzo[d][1,3]dioxol-5-yl(4-(trifluoromethyl)phenyl)amino)piperidine-1-carbonyl)-1H-1,2,4-triazole-3-carbonitrile]
- IC50 [1, 3]: 1 to 10 nM
- IC50 [2]: 100 to 1000 nM

Compound: O=C(C1CCN(C(c2ccc3c(c2)COCO3)c2ccc3c(c2)COCO3)CC1)n1nnc2ccccc21 [Example 52, (1H-benzo[d][1,2,3]triazol-1-yl)(1-(bis(4H-benzo[d][1,3]dioxin-6-yl)methyl)piperidin-4-yl)methanone]
- IC50 [1, 3]: > 100 nM
- IC50 [2]: > 50000 nM

Compound: O=C(On1nnc2ccc(C(F)(F)F)cc21)N1CCN(C(c2ccc3c(c2)COCO3)c2ccc3c(c2)COCO3)CC1 [Example 22, 6-(trifluoromethyl)-1H-benzo[d][1,2,3]triazol-1-yl 4-(bis(4H-benzo[d][1,3]dioxin-6-yl)methyl)piperazine-1-carboxylate]
- IC50 [1, 3]: > 100 nM
- IC50 [2]: > 50000 nM

Compound: 1-(4-((2,3-dihydrobenzo[b][1,4]dioxin-6-yl)(4-methoxyphenyl)methyl)piperazine-1-carbonyl)-1H-benzo[d][1,2,3]triazole-6-carbonitrile and 1-(4-((2,3-dihydrobenzo[b][1,4]dioxin-6-yl)(4-methoxyphenyl)methyl)piperazine-1-carbonyl)-1H-benzo[d][1,2,3]triazole-5-carbonitrile [Example 106]
- IC50 [1, 3]: 1 to 10 nM
- IC50 [2]: ~10000 nM

Compound: N#Cc1ccc(C(c2ccc(C#N)cc2)N2CCN(C(=O)n3nnc4ccc(C#N)cc43)CC2)cc1 [Example 100, 4,4′-((4-(6-cyano-1H-benzo[d][1,2,3]triazole-1-carbonyl)piperazin-1-yl)methylene)dibenzonitrile]
- IC50 [1, 3]: 1 to 10 nM
- IC50 [2]: > 50000 nM

Compound: O=C(N1CCN(C(c2ccc3c(c2)COCO3)c2ccc3c(c2)COCO3)CC1)n1nnc2cc(F)ccc21 [Example 40, (4-(bis(4H-benzo[d][1,3]dioxin-6-yl)methyl)piperazin-1-yl)(5-fluoro-1H-benzo[d][1,2,3]triazol-1-yl)methanone]
- IC50 [1, 3]: 10 to 100 nM
- IC50 [2]: 1000 to 20000 nM

Compound: O=C(N1CCN(C(c2ccc3c(c2)COCO3)c2ccc3c(c2)COCO3)CC1)n1cccn1 [Example 1, (4-(bis(4H-benzo[d][1,3]dioxin-6-yl)methyl)piperazin-1-yl)(1H-pyrazol-1-yl)methanone]
- IC50 [1, 3]: > 100 nM
- IC50 [2]: > 50000 nM

Compound: O=C(Oc1c(F)c(F)c(F)c(F)c1F)N1CCN(C(c2ccc3c(c2)COCO3)c2ccc3c(c2)COCO3)CC1 [Example 29, pentafluorophenyl 4-(bis(4H-benzo[d][1,3]dioxin-6-yl)methyl)piperazine-1-carboxylate]
- IC50 [1, 3]: > 100 nM
- IC50 [2]: > 50000 nM

Compound: N#Cc1ccc2c(c1)nnn2C(=O)N1CC2(CC(OC(c3ccc4c(c3)COCO4)c3ccc4c(c3)COCO4)C2)C1 [Example 60, 1-(6-(bis(4H-benzo[d][1,3]dioxin-6-yl)methoxy)-2-azaspiro[3.3]heptane-2-carbonyl)-1H-benzo[d][1,2,3]triazole-5-carbonitrile]
- IC50 [1, 3]: 10 to 100 nM
- IC50 [2]: < 10000 nM

Compound: O=C(N1CCN(C(c2ccc3c(c2)COCO3)c2ccc3c(c2)COCO3)CC1)n1cc(-c2ccccc2)nn1 [Example 25, (4-(bis(4H-benzo[d][1,3]dioxin-6-yl)methyl)piperazin-1-yl)(4-phenyl-1H-1,2,3-triazol-1-yl)methanone]
- IC50 [1, 3]: 10 to 100 nM
- IC50 [2]: > 10000 nM

Compound: N#Cc1ccc2c(c1)nnn2C(=O)N1CCN(C(c2ccc3c(c2)COCO3)c2ccc3c(c2)COCO3)CC1 [Example 49, 1-(4-(bis(4H-benzo[d][1,3]dioxin-6-yl)methyl)piperazine-1-carbonyl)-1H-benzo[d][1,2,3]triazole-5-carbonitrile]
- IC50 [1, 3]: 10 to 100 nM
- IC50 [2]: > 20000 nM

Compound: N#Cc1ccc2nnn(C(=O)N3CCC(OC(c4ccc5c(c4)COCO5)c4ccc5c(c4)COCO5)CC3)c2c1 [Example 56, 1-(4-(bis(4H-benzo[d][1,3]dioxin-6-yl)methoxy)piperidine-1-carbonyl)-1H-benzo[d][1,2,3]triazole-6-carbonitrile]
- IC50 [1, 3]: 1 to 10 nM
- IC50 [2]: > 10000 nM

Compound: O=C(Oc1ccccn1)N1CCN(C(c2ccc3c(c2)COCO3)c2ccc3c(c2)COCO3)CC1 [Example 20, pyridin-2-yl 4-(bis(4H-benzo[d][1,3]dioxin-6-yl)methyl)piperazine-1-carboxylate]
- IC50 [1, 3]: > 100 nM
- IC50 [2]: > 50000 nM

Compound: N#Cc1ccc2c(c1)nnn2C(=O)N1CCC(OC(c2ccc3c(c2)COCO3)c2ccc3c(c2)COCO3)CC1 [Example 57, 1-(4-(bis(4H-benzo[d][1,3]dioxin-6-yl)methoxy)piperidine-1-carbonyl)-1H-benzo[d][1,2,3]triazole-5-carbonitrile]
- IC50 [1, 3]: 1 to 10 nM
- IC50 [2]: 100 to 1000 nM

Compound: O=C(Oc1ccc2c(c1)CCC2)N1CCN(C(c2ccc3c(c2)COCO3)c2ccc3c(c2)COCO3)CC1 [Example 12, 2,3-dihydro-1H-inden-5-yl 4-(bis(4H-benzo[d][1,3]dioxin-6-yl)methyl)piperazine-1-carboxylate]
- IC50 [1, 3]: > 100 nM
- IC50 [2]: > 10000 nM

Compound: COc1ccc(C(c2cccnc2)N2CCN(C(=O)n3cnc(C#N)n3)CC2)cc1 (stereo not shown) [Example 104, 1-(4-((4-methoxyphenyl)(pyridin-3-yl)methyl)piperazine-1-carbonyl)-1H-1,2,4-triazole-3-carbonitrile]
- IC50 [1, 3]: 1 to 10 nM
- IC50 [2]: 1000 to 10000 nM

Compound: O=C(N1CCN(C(c2ccc3c(c2)COCO3)c2ccc3c(c2)COCO3)CC1)n1nnc2ccccc21 [Example 8, (1H-benzo[d][1,2,3]triazol-1-yl)(4-(bis(4H-benzo[d][1,3]dioxin-6-yl)methyl)piperazin-1-yl)methanone]
- IC50 [1, 3]: 1 to 20 nM
- IC50 [2]: > 20000 nM

Compound: N#Cc1ncn(C(=O)N2CCC3(CC2)CN(C(c2ccc4c(c2)COCO4)c2ccc4c(c2)COCO4)C3)n1 [Example 83, 1-(2-(bis(4H-benzo[d][1,3]dioxin-6-yl)methyl)-2,7-diazaspiro[3.5]nonane-7-carbonyl)-1H-1,2,4-triazole-3-carbonitrile]
- IC50 [1, 3]: 1 to 10 nM
- IC50 [2]: 10000 to 50000 nM
